Reference: patent US12162855B2, “Tetrahydroquinolino derivatives for the treatment of metastatic and chemoresistant cancers” (THE TRUSTEES OF PRINCETON UNIVERSITY, priority 2018, dated 2024)
Values joined by “and” are separate entries in the source; they are usually repeats but may differ in a detail not shown here. Identical values can stand only once. Marks after values point to notes of the source that are not given here.

Key:
[1] = biological target: T1, ALDH1a3 (Homo sapiens, UniProt P47895); assay: ALDEFLUOR assay in 293T cells transiently transfected with human Aldh1a3; assay type: cell-based; conditions: 293T cells transfected with human Aldh1a3
T1 construct: lentiviral vectors containing either the vector backbone or full-length human Aldh1a3; expressed in transfected cells; host or cells: SUM159-M1a (A1) and SUM159 (A7) breast cancer cells, lentiviral pLex vector, puromycin selection
T1 sequence (P47895 1-512): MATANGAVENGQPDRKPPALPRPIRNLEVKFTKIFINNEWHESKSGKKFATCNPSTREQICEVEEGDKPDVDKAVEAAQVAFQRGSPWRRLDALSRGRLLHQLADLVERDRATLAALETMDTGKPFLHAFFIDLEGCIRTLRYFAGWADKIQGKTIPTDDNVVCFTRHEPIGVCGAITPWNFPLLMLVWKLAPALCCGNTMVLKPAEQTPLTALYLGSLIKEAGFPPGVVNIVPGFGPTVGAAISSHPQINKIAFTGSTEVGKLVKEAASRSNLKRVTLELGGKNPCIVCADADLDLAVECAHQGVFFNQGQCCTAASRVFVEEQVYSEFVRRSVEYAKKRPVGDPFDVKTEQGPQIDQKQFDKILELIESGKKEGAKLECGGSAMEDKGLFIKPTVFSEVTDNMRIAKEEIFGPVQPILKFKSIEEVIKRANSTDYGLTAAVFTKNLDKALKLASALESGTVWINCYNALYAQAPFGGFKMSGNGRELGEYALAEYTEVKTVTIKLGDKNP
Experimental: The coding sequences of Aldh1a1, Aldh1a2, Aldh1a3 and Aldh3a1 were cloned from cDNA made from pooled human reference RNA samples. Cloned sequences flanked by Age1 and Xho1 restriction sites were inserted into the pLex lentiviral plasmid. Clones were sequenced and compared against NCBI expressed sequence tags (ESTs) for accuracy. Viral production of each enzyme was performed by transfection into the 293T packaging cell line using PEI along with PsPax2 and VSVG packaging vectors. Viruses were collected and filtered at 0.45 μm, then cells were transduced using polybrene (8 μg/mL) for 12 hours, followed by culture with 1 μg/mL puromycin for the duration of experiments. All viral transduction and selection was performed on a cell population-wide basis.
Cells were counted, centrifuged and resuspended at 1,000,000 cells/mL in ALDEFLUOR™ buffer (Stemcell Technologies). ALDEFLUOR™ substrate (Stemcell Technologies, 1:200) and test compound or 1 mM DEAB were added to cell suspension and incubated at 37° C. for 45 minutes with vortexing every 15 minutes. Cells were centrifuged and resuspended in ALDEFLUOR™ buffer with DAPI at 5 μg/mL. Samples were analyzed with the BD LSR2 flow cytometry platform. Gating was performed using DEAB as a negative control.

[2] = Plasma pharmacokinetics in mice by LC/MS/MS; assay type: in vivo, mouse; conditions: for half-life / AUC(0-inf) / Clearance: mice, dose 25 mg/kg; for AUC(0-inf): noncompartment model
Experimental: Pharmacokinetic experiments were performed on 16-week old C57BL6 male mice. Mice were administered MBE1.5 (15% DMSO, 5% Kolliphor EL, 80% PBS) via IP injection. Blood was collected by terminal cardiac puncture at 15 minutes, 30 minutes, 1 hour, 3 hours, and 24 hours post-injection. Serum was obtained by blood separation via centrifugation at 16200 RCF for 1 min. Tissues were then collected following exsanguination. Serum and tissues were rapidly frozen in liquid nitrogen and submitted for pharmacokinetic evaluation.
Plasma MBE1.5 concentration was measured with LC/MS/MS assay in mice PK studies.
Chemicals: MBE1.5 and MBE2.0 were supplied as stocks (1 mg/mL) in MeOH with 1% DMSO. MBE2.0 was used as internal standard. HPLC grade acetonitrile and water were purchased from J.T. Baker (Center Valley, PA). The mouse plasma was purchased from Innovative Research (Novi, MI) for the preparation of plasma calibration standards.
Preparation of standard solution: MBE1.5 stock was diluted in control mice plasma to obtain calibration range from 8.2 ng/mL to 18 μg/mL. 1 μg/mL MBE2.0 in methanol was used as a working internal standard (IS).
Sample preparation: The plasma standard and mouse plasma samples (204) were spiked with 54 μL IS and deproteinized with 1204 acetonitrile and methanol (v/v 5:1). After centrifugation at 13000 rpm for 15 minutes, 254 of the supernatant was analyzed by LC-MS.
Liquid Chromatographic/Mass spectrometry: Quantitation of MBE1.5 was performed using TSQ Quantum triple quadruple mass spectrometer equipped with an API electrospray ionization (ESI) source, a Surveyor MS pump, a Surveyor Autosampler, with Xcalibur data acquisition software (ThermoElectron, San Jose, CA, USA).
LC conditions were as follows: mobile phase A: aqueous solution (0.1% formic acid); mobile phase B: acetonitrile (0.1% formic acid); flow rate 500 μL/min; gradient elution, 0 to 1 minute, 60% A; 1 to 2.5 minutes, 60% to 20% A; 2.5 to 7.0 minutes, 0% A, 7.0 to 9.0 minutes 0% A, 9.0 to 11.0 minutes, 0% to 60% A; and column: Luna® C18, 150×4.6 mm, 5 μm (Phenomenex, Torrance, CA). The retention times for MBE1.5 and IS were 6.3 minutes and 6.6 minutes, respectively.
MS/MS conditions were as follows: in single reaction monitoring mode, m/z 313.2/178.2 (MBE1.5), m/z 281.2/119.1 (MBE2.0, IS); ion spray voltage, 4500 v; capillary temperature 350° C.; sheath gas pressure 20 arbitrary units; Aux gas pressure 50 arbitrary units; collision pressure 1.5 arbitrary units. The collision energy and tube lens were optimized for each compound.
Calculation: Plasma calibration standards were used for the quantitation of MBE in plasma samples. The log linear regression was used for calibration curve to determine the concentration in plasma samples.
Preliminary PK data was analyzed using noncompartment model by Winnolin 2.0.

[3] = male, C57BL6, mouse, plasma, ip, 25 mg/kg, i.p., calculation: time point to 3 hr
[4] = male, C57BL6, mouse, plasma, ip, 25 mg/kg, i.p., calculation: time point to 24 hr

CCc1ccccc1C(=O)Nc1cc2c(cc1F)NC(=O)CC2 [MBE1.5, 2-ethyl-N-(7-fluoro-2-oxo-1,2,3,4-tetrahydroquinolin-6-yl)benzamide]
inhibition of Aldh1a3 activity (FIG. 2B) [1]: effective at inhibiting Aldh1a3 activity
Concentration in mouse plasma, individual mice ([2]; Time 0 hr, mice #1-#3, LOD 8.2 ng/mL): <LOD
Concentration in mouse plasma, individual mice ([2]; Time 0.5 hr, i.p., mice #1-#3): 6932 ng/mL and 3411 ng/mL and 4650 ng/mL
Concentration in mouse plasma, individual mice ([2]; Time 1 hr, i.p., mice #1-#3): 2842 ng/mL and 6295 ng/mL and 2815 ng/mL
Concentration in mouse plasma, individual mice ([2]; Time 3 hr, i.p., mice #1-#3): 1704 ng/mL and 3447 ng/mL and 849 ng/mL
Concentration in mouse plasma, individual mice ([2]; Time 24 hr, i.p., mice #1-#3, LOD 8.2 ng/mL): <LOD
Concentration in mouse plasma, individual mice, forced to calculate ([2]; Time 24 hr, i.p., mice #1-#3, integrated peak area less than LOD): 0.002* μg/ml and 0.006* μg/ml and 0.005* μg/ml
Concentration in mouse plasma, Mean ([2]; Time 24 hr, i.p., LOD 8.2 ng/mL): <LOD
concentration at 0.5 h ([2]; male, C57BL6, mouse, plasma, ip, 25 mg/kg, Time 0.5 hr): 5000 ng/mL
concentration at 1 h ([2]; male, C57BL6, mouse, plasma, ip, 25 mg/kg, Time 1 hr): 3980 ng/mL
concentration at 3 h ([2]; male, C57BL6, mouse, plasma, ip, 25 mg/kg, Time 3 hr): 2000 ng/mL
concentration at 24 h ([2]; male, C57BL6, mouse, plasma, ip, 25 mg/kg, Time 24 hr, i.p., integrated peak area less than LOD, read-out: Concentration in mouse plasma, Mean, forced to calculate): 4 ng/mL
half-life [2, 3]: 1.9 h
AUC(0-inf) [2, 3]: 15700 ng·h/mL
half-life [2, 4]: 2.32 h
AUC(0-inf) [2, 4]: 16900 ng·h/mL
Clearance ([2]; i.p., calculation: time point to 3 hr): 39.87 mL/h
Clearance ([2]; i.p., calculation: time point to 24 hr): 36.96 mL/h
